Legend:
hMC4R = hMC4R (Homo sapiens (Human), UniProt P32245); assay: In vitro binding affinity assay using hMC4R (radioligand competition binding, CHO cell membranes); settings: competition with [125I]-(Nle4, D-Phe7)-α-MSH 0.5 nM; Ki from IC50 by Cheng-Prusoff; read-out: Ki (nM) geometric mean
Procedure: The binding affinity of test compounds at the α-melanocyte-stimulating hormone receptor (hMC4R) was assessed using a radioligand competition binding assay. Recombinant Chinese hamster ovaries (CHO) cells stably expressing hMC4R (PerkinElmer #ES-191-C) were used for competitive binding. hMC4R membranes were grown in Dulbecco's Modified Essential Medium and Ham's F-12 Medium (DMEM/F12), 10% heat inactivated fetal bovine serum (FBS), 0.4 mg/mL Geneticin and 2 mM L-glutamine. Cell membranes were bulked and frozen until the assay was performed.
Compounds were solubilized in 100% dimethyl sulfoxide (DMSO) to a concentration of 30 mM. A 10-point intermediate dilution series using half log dilutions was created in 100% DMSO with a top concentration of 0.03 mM. The serially diluted compounds were spotted as 1 μL/well, in 96-well Costar 3363 plates. The final compound range in the assay was 300 nM to 0.01 nM with a final DMSO concentration of 1%. Control wells, containing 1 μL of 2 mM ([…]) alpha-melanocyte stimulating hormone (α-MSH-Tocris #2584) was added to the non-specific binding wells and 1 μL 100% DMSO for the total binding control wells. This was followed by the addition of 80 μL of assay buffer [25 mM HEPES, 5 mM MgCl2, 2.5 mM CaCl2, 150 mM NaCl, Complete EDTA-free Protease Inhibitor Tablet (Thermo Scientific #11873580001) and 0.25% BSA]. […] The exact concentration of radioligand used for each experiment was determined by liquid scintillation counting and adjusted if necessary.
Frozen hMC4R cell membranes were thawed and Dounce homogenized. Homogenates were resuspended in assay buffer to a concentration of 2 μg per well. […] The plates were incubated for 2 hours at room temperature. Assay samples were then rapidly filtered through Unifilter-96 GF/B PEI coated filter plates using a filter plate harvester (PerkinElmer) and rinsed with ice-cold wash buffer [25 mM (4-(2-hydroxyethyl)-1-piperazineethanesulfonic acid (HEPES), 1 mM MgCl2, 2.5 mM CaCl2, and 500 mM NaCl]. Filter plates were dried overnight at room temperature. Plates were then bottom-sealed prior to the addition of 50 μL/well Ultima Gold XR scintillation fluid (PerkinElmer 6013111). Plates were then top-sealed, incubated for 60 minutes at room temperature and then the amount of radioactivity present was determined by liquid scintillation counting on a Microbeta Trilux (PerkinElmer #2450-0060).
The raw data (expressed as counts per minute) were analyzed using ActivityBase (IDBS Data Management Software). […] Equilibrium dissociation constant for inhibitor of ligand and receptor interaction (Ki) values were then calculated from the IC50 values using the Cheng-Prusoff equation: Ki=IC50/(1+([L]/Kd)), where [L] is the concentration of the radioligand used in the experiment and Kd is the affinity of the radioligand (determined in separate saturation experiments).

[1] = molecular target: human Melanocortin-4 receptor (MC4R) (Homo sapiens (Human), UniProt P32245); assay: Functional in vitro MC4R antagonist potency assay (intracellular cAMP, HTRF, CHO cells); assay type: cell-based; settings: cAMP after EC80 agonist stimulation (200 nM αMSH); Kb from IC50 by Leff-Dougall equation; read-out: Kb (nM) Antagonist geometric mean
human Melanocortin-4 receptor (MC4R), sequence (P32245 whole entry): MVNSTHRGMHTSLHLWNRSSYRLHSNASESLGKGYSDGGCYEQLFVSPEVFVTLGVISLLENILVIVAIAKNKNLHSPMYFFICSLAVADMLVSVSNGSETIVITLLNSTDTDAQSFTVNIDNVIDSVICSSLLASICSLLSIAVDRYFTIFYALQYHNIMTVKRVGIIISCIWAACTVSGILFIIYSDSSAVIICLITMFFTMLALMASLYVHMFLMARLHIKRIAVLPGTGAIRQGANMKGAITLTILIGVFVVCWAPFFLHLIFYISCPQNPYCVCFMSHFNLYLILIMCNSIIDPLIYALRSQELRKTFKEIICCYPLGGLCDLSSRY
Procedure: The functional in vitro antagonist potency for test compounds was determined by monitoring intracellular cyclic adenosine monophosphate (cAMP) levels in Chinese hamster ovary (CHO—) cells stably expressing the human Melanocortin-4 receptor (MC4R). Following agonist activation, human MC4R associates with the G-protein complex causing the Ga subunit to exchange bound GDP for GTP, followed by dissociation of the Gα-GTP complex. The activated Ga subunit can couple to downstream effectors to regulate the levels of second messengers or cAMP within the cell. Thereby, determination of intracellular cAMP levels allows for pharmacological characterization. Intracellular cAMP levels are quantitated using a homogenous assay utilizing the Homogeneous Time-Resolved Fluorescence (HTRF) technology from CisBio. The method is a competitive immunoassay between native cAMP produced by cells and the cAMP labelled with the acceptor dye, d2. The two entities then compete for binding to a monoclonal anti-cAMP antibody labeled with cryptate. The specific signal is inversely proportional to the concentration of cAMP in the cells.
Test compounds were solubilized to 30 mM in 100% dimethyl sulfoxide (DMSO) and stored. An 11-point dilution series using 1 in 3 162-fold serial dilutions was created in 100% DMSO with a top concentration of 800 μM. The serially diluted compound was spotted into a 384-well plate (Greiner, Cat No. 781280) at 40 nL/well with duplicate points at each concentration, and then diluted 1 in 1000 with 40 μL assay buffer containing HBSS, 20 mM HEPES (Invitrogen), 0.1% BSA, and 250 μM IBMX (Sigma Aldrich) to create an intermediate plate at 2× final assay concentration (FAC). The final compound concentration range in the assay was 400 nM to […], with a final DMSO concentration of 0.1%.
In-house generated CHO cells stably expressing the Gs-coupled human MC4R receptor were plated in 384-well assay plates (Corning, Cat No. 3570) in 50 μL/well of Ham's F-12 containing 10% heat inactivated FBS, 1× penicillin/streptomycin, 1 mM Glutamax (Invitrogen) at a density of 2,500 cells per well and incubated at 37° C. (95% O2: 5% CO2) overnight, with micro-clime lids (Labcyte, Cat No. LLS-0310). On day of assay, media was removed from the assay plate through gentle flicking and blotting plate on a paper towel and replaced with 5 μL of 2× antagonist compound in assay buffer (HBSS, 20 mM HEPES, 0.1% BSA, 250 μM IBMX) and 0.1% DMSO. Cells were incubated with compound for 30 minutes at 37° C. (95% O2: 5% CO2) before addition of 5 μL EC80 agonist stimulation (200 nM α-melanocyte stimulating hormone, αMSH, Bachem) and another 30-minute incubation at 37° C. (95% O2: 5% CO2). Intracellular cAMP levels were quantified as per Cisbio's protocol (5 μL of D2 and then 5 μL Cryptate, incubated for 1-2 hours at room temperature). Samples were measured on an Envision plate reader (PerkinElmer Life and Analytical Sciences; excitation, 320 nm; emission, 665 nm/620 nm).
Data were analyzed using the ratio of fluorescence intensity at 620 and 665 nm for each well, extrapolated from the cAMP standard curve to express data as nM cAMP for each well. Data expressed as nM cAMP were then normalized to control wells using Activity Base (IDBS). Zero percent effect (ZPE) was defined as nM of cAMP generated from EC80 agonist stimulation (200 nM αMSH). In the absence of an antagonist control compound, one hundred percent effect (HPE) was defined as nM of cAMP generated from assay buffer/vehicle only.

hMC4R, sequence (P32245 whole entry): as above

| Ki (hMC4R) [nM] | Kb [1] [nM] | Compound |
| --- | --- | --- |
| 0.31 | 1.9 | COc1cc([C@@H](C)C(=O)N2CC[C@H](Nc3ccc(-c4cn(C)c(C(F)F)n4)c(C)n3)C2)cc(OC)n1 (single isomer, unassigned) [Example 12A] |
| 0.45 | 14 | COc1cccc([C@@H](C)C(=O)N2CC[C@H](Nc3ccc(-c4cn(C)c(C(C)(F)F)n4)c(C)n3)C2)c1 (single isomer, unassigned) [Example 14B] |
| 2.1 | 5.6 | COc1cc([C@@H](C)C(=O)N2CC[C@H](Nc3ccc(-c4nnn(C)n4)c(C)n3)C2)c(C)cn1 (single isomer, unassigned) [Example 26B] |
| 0.48 | 2.6 | COc1cc([C@@H](C)C(=O)N2CC[C@H](Nc3ccc(-c4cn(C)c(C(C)(F)F)n4)c(C)n3)C2)c(F)cn1 (single isomer, unassigned) [Example 21B] |
| 2.1 | 8.1 | COc1cc([C@@H](C)C(=O)N2CC[C@H](Nc3ccc(-c4ncccn4)c(C)n3)C2)c(C)cn1 (single isomer, unassigned) [Example 22B] |
| 0.49 | 0.96 | COc1cc([C@@H](C)C(=O)N2CC[C@H](Nc3ccc(-c4nc(C(F)F)n(C)n4)c(C)n3)C2)c(Cl)cn1 (single isomer, unassigned) [Example 24B] |
| 4.2 | 33 | Cc1nc(N[C@H]2CCN(C(=O)Cc3ccc(F)cc3)C2(C)C)ccc1-c1cn(C)cn1 [Example 3B, 1-[(3S)-2,2-dimethyl-3-{[6-methyl-5-(1-methyl-1H-imidazol-4-yl)pyridin-2-yl]amino}pyrrolidin-1-yl]-2-(4-fluorophenyl)ethan-1-one] |
| 0.29 | 7.2 | COc1cc(OC(F)F)cc([C@@H](C)C(=O)N2CC[C@H](Nc3ccc(-c4nc(C(C)(F)F)n(C)n4)c(C)n3)C2)c1 (single isomer, unassigned) [Example 40B] |
| 0.23 | 2.1 | COc1cc([C@@H](C)C(=O)N2CC[C@H](Nc3ccc(-c4cn(C)c(C(C)(F)F)n4)c(C)n3)C2)c(C)cn1 (single isomer, unassigned) [Example 16B] |
| 120 | > 110 | COc1cc([C@@H](C)C(=O)N2CC[C@H](Nc3ccc(-c4ncccn4)c(C)n3)C2)c(C)cn1 (single isomer, unassigned) [Example 22A] |
| 0.93 | 6.8 | COc1cc([C@@H](C)C(=O)N2CC[C@H](Nc3ccc(-c4ncccn4)c(C)n3)C2)cc(OC(F)F)n1 (single isomer, unassigned) [Example 30B] |
| 0.31 | 3.2 | COc1cc([C@@H](C)C(=O)N2CC[C@H](Nc3ccc(-c4cn(C)c(C(F)F)n4)c(C)n3)C2)c(F)cn1 (single isomer, unassigned) [Example 38B] |
| 0.53 | 4.1 | COc1cc([C@@H](C)C(=O)N2CC[C@H](Nc3ccc(-c4nc(C(C)(F)F)n(C)n4)c(C)n3)C2)c(Cl)cn1 (single isomer, unassigned) [Example 37B] |
| > 200 | > 62 | COc1cc([C@@H](C)C(=O)N2CC[C@H](Nc3ccc(-c4ncccn4)c(C)n3)C2)cc(OC(F)F)n1 (single isomer, unassigned) [Example 30A] |
| 0.49 | 1.8 | COc1cc([C@@H](C)C(=O)N2CC[C@H](Nc3ccc(-c4nc(C(F)(F)F)n(C)n4)c(C)n3)C2)c(Cl)cn1 (single isomer, unassigned) [Example 25B] |
| 0.28 | 3.3 | COc1cc(OC)cc([C@@H](C)C(=O)N2CC[C@H](Nc3ccc(-c4nc(C(F)(F)F)n(C)n4)c(C)n3)C2)c1 [Example 39, (2R)-2-(3,5-dimethoxyphenyl)-1-[(3S)-3-({6-methyl-5-[1-methyl-5-(trifluoromethyl)-1H-1,2,4-triazol-3-yl]pyridin-2-yl}amino)pyrrolidin-1-yl]propan-1-one] |
| 0.34 | 2.9 | Cc1nc(N[C@H]2CCN(C(=O)[C@H](F)c3ccccc3)C2)ccc1-c1cn(C)cn1 (single isomer, unassigned) [Example 13B] |

| Compound | Ki (hMC4R) [nM] | Kb [1] [nM] |
| --- | --- | --- |
| COc1cc([C@@H](C)C(=O)N2CC[C@H](Nc3ccc(-c4ncccn4)c(C)n3)C2)c(Cl)cn1 [Example 6, (2R)-2-(5-chloro-2-methoxypyridin-4-yl)-1-[(3S)-3-{[6-methyl-5-(pyrimidin-2-yl)pyridin-2-yl]amino}pyrrolidin-1-yl]propan-1-one] | 1.1 | 2.2 |
| COc1cc([C@@H](C)C(=O)N2CC[C@H](Nc3ccc(-c4nnn(C)n4)c(C)n3)C2)c(Cl)cn1 [Example 1, (2R)-2-(5-chloro-2-methoxypyridin-4-yl)-1-[(3S)-3-{[6-methyl-5-(2-methyl-2H-tetrazol-5-yl)pyridin-2-yl]amino}pyrrolidin-1-yl]propan-1-one] | 0.88 | 5.1 |
| [2H]C([2H])([2H])n1nc(-c2ccc(N[C@H]3CCN(C(=O)[C@H](C)c4cc(OC)ncc4F)C3)nc2C)nc1C(F)(F)F [Example 42, (2R)-2-(5-fluoro-2-methoxypyridin-4-yl)-1-[(3S)-3-({6-methyl-5-[1-(^2H3)methyl-5-(trifluoromethyl)-1H-1,2,4-triazol-3-yl]pyridin-2-yl}amino)pyrrolidin-1-yl]propan-1-one] | 1.3 | 5.4 |
| COc1cc([C@@H](C)C(=O)N2CC[C@H](Nc3ccc(-c4nc(C(F)(F)F)n(C)n4)c(C)n3)C2)c(F)cn1 [Example 2, (2R)-2-(5-fluoro-2-methoxypyridin-4-yl)-1-[(3S)-3-({6-methyl-5-[1-methyl-5-(trifluoromethyl)-1H-1,2,4-triazol-3-yl]pyridin-2-yl}amino)pyrrolidin-1-yl]propan-1-one] | 1.2 | 7.2 |

— patent US20250129048A1, “MELANOCORTIN 4 RECEPTOR ANTAGONISTS AND USES THEREOF” (Pfizer Inc., priority 2021, published 2025)
